Laboratory results as given in patent US20150218238A1, “TREATING DISEASES BY MODULATING A SPECIFIC ISOFORM OF MKL1” (NOVARTIS FORSCHUNGSSTIFTUNG, ZWEIGNIEDERLASSUNG FRIEDRICH …, priority 2012, published 2015).

Tested on: EcR-293 cells
Assay: MKL1 localization by immunofluorescence after LPA stimulation
Format: cell-based
Details: 50 μm LPA, 20 min
Procedure: Cells were grown on 4-compartment plastic tissue culture dishes (Greiner Bio-One, Kremsmünster, Austria) and fixed with 100% methanol at −20° C. for 15 min. Anti-MKL1 total mAb hybridoma supernatant was diluted 1:4 in PBS and incubated on the cells for 1.5 h at RT. After washing with PBS, fluorescent secondary antibodies were applied for 1.5 h at RT to visualize the MKL1 staining (1:1000 in PBS). After washing, coverslips were mounted on the cells using ProLong Gold Antifade reagent (life Technologies/Invitrogen).
Oleoyl-α-lysophosphatidic acid (LPA) was purchased from Sigma-Aldrich (Buchs, Switzerland) and stock solutions were prepared in 1% BSA (Sigma-Aldrich)/PBS. EcR-293 cells stably overexpressing 5′UTR-MKL1_S or 5′UTR-MKL1_L were seeded on plastic dishes precoated with 0.4 mg/ml poly-L-lysine (Sigma-Aldrich) and starved overnight with D-MEM/0.3% FBS. After 18 h starvation, the cells were treated with 50 μm LPA for 0, 5, 20, or 60 min, and subsequently stained with anti-MKL1 total mAb (see immunofluorescence staining). After staining, MKL1 staining of strongly overexpressing cells was classified as predominantly cytosolic (nucleus clearly distinguishable as unstained), equally distributed, or predominantly nuclear (nucleus clearly distinguishable as stained).

Oleoyl-α-lysophosphatidic acid [LPA]
cells showing nuclear staining (starved EcR-293 cells expressing MKL1_L): very few
cells showing partial or full nuclear MKL1 accumulation (starved EcR-293 cells expressing MKL1_S): two thirds
